Values joined by “and” are separate entries in the source; they are usually repeats but may differ in a detail not shown here. Identical values can stand only once.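 Protocol summary: plate cells (96-well), add compound at 5 concentrations, incubate 48 h, interpolate endpoints linearly. GI50 is the concentration that inhibits growth by half. TGI: concentration producing complete growth inhibition.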
Assays:
Experiment in all cases: inhibition of tumour cell growth, NCI panel, 48 h
BT-549 breast = test system: BT-549 breast
CAKI-1 renal = test system: CAKI-1 renal
COLO 205 colon = test system: COLO 205 colon
HOP-62 NSCLC = test system: HOP-62 NSCLC
HOP-92 NSCLC = test system: HOP-92 NSCLC
M14 melanoma = test system: M14 melanoma
NCI-H226 lung = test system: NCI-H226 lung
NCI-H23 lung = test system: NCI-H23 lung
SK-OV-3 ovarian = test system: SK-OV-3 ovarian
UO-31 renal = test system: UO-31 renal

SMILES | GI50 (BT-549 breast) | TGI (BT-549 breast) | GI50 (CAKI-1 renal) | TGI (CAKI-1 renal) | GI50 (COLO 205 colon) | TGI (COLO 205 colon) | GI50 (HOP-62 NSCLC) | TGI (HOP-62 NSCLC) | GI50 (HOP-92 NSCLC) | TGI (HOP-92 NSCLC) | GI50 (M14 melanoma) | TGI (M14 melanoma) | GI50 (NCI-H226 lung) | TGI (NCI-H226 lung) | GI50 (NCI-H23 lung) | TGI (NCI-H23 lung) | GI50 (SK-OV-3 ovarian) | TGI (SK-OV-3 ovarian) | GI50 (UO-31 renal) | TGI (UO-31 renal)
CN1CCN(Cc2ccc(-c3cc4ncnc(Nc5ccc(OCc6cccc(F)c6)c(Cl)c5)c4s3)o2)CC1 | 4.41 µM | 8.91 µM | 3.33 µM | 7.98 µM | 4.8 µM | 8.66 µM | 4.64 µM | 9.12 µM | 2.76 µM | 6.51 µM | 4.63 µM | 8.81 µM | 4.39 µM | 10.4 µM | 4.29 µM | 8.44 µM | 4.67 µM | 9.97 µM | 3.3 µM | 7.37 µM
CCNC(=O)C[C@@H]1N=C(c2ccc(Cl)cc2)c2cc(OC)ccc2-n2c(C)nnc21 | > 28.1 µM | > 100 µM | 0.584 µM | > 100 µM | 0.994 µM | > 100 µM | 2.1 µM | > 100 µM | 0.548 µM | > 100 µM | 2.02 µM | > 100 µM | > 32.8 µM | > 100 µM | 13.5 µM | > 100 µM | 2.37 µM | > 100 µM | 0.659 µM | > 100 µM
Cc1[nH]c(=O)[nH]c(=O)c1N(CCF)CCCl |  | 769 µM | 137 µM | 634 µM and 711 µM | 337 µM | 930 µM and 805 µM | 439 µM | 872 µM and 1100 µM and 1150 µM | 153 µM | 329 µM and 466 µM and 363 µM |  | 767 µM | 249 µM | 584 µM and 1960 µM and 1390 µM | 255 µM and 512 µM | 635 µM and 2500 µM and 631 µM | 332 µM and 472 µM | 741 µM and 1330 µM and 1240 µM | 723 µM and 245 µM | 1940 µM and 1110 µM
COC(=O)/C=C/c1cc(O)c2c(c1)C(C(=O)OC)C(c1ccc(O)c(O)c1)O2 (stereo not drawn) | 0.127 µM and 0.103 µM | 39.8 µM and 5.39 µM | 0.644 µM and 0.393 µM | > 100 µM | 4.19 µM and 2.49 µM | 29 µM and 12.3 µM | 0.493 µM and 0.137 µM | > 72.4 µM and 46.5 µM |  | > 55 µM and 9.3 µM | 0.131 µM and 0.0279 µM | > 41.3 µM | 2.93 µM and 3.86 µM | 24.3 µM and > 100 µM | 0.134 µM and 0.075 µM | 54.7 µM and > 100 µM | 1 µM and 0.585 µM | 71.7 µM and 35.7 µM | 0.855 µM and 0.301 µM | 23.6 µM and 30.7 µM
CC1=C(C)C(=O)c2c(c(C(=O)c3ccccc3)c3nc4ccccc4n3c2C)C1=O | 54.7 µM | > 100 µM | > 100 µM | > 100 µM | > 100 µM | > 100 µM | 23.4 µM | 57.3 µM | 26 µM | 87.3 µM | > 100 µM | > 100 µM | > 100 µM | > 100 µM | 46.5 µM | > 100 µM |  |  | > 100 µM | > 100 µM
OCCN(CCO)N=Nc1ccc(-c2nc3ccccc3[nH]2)cc1 | 42.7 µM | 97.8 µM | 17 µM | 60.6 µM | 22.9 µM | 70.4 µM | > 100 µM | > 100 µM | 3.02 µM | 23.8 µM | 46.4 µM | > 100 µM | > 100 µM | > 100 µM |  |  | > 100 µM | > 100 µM | 43.8 µM | > 100 µM
O=C(Nc1ccc(Cl)c([N+](=O)[O-])c1)Nc1nc2ccccc2s1 | 16.4 µM | 44.7 µM | 2.08 µM | 6.46 µM | 1.78 µM | 3.39 µM | 3.21 µM | 12 µM | 2.34 µM | 7.06 µM | 11.3 µM | 33 µM | 4.06 µM | 17.3 µM | 2.4 µM | 9.05 µM | 2.6 µM | 8.46 µM | 2.91 µM | 
COc1ccc(C(=O)Cn2c(C(=O)c3ccc(OC)cc3)nc3ccccc32)cc1 | 3.52 µM | > 100 µM | 1.94 µM | > 100 µM | 2.38 µM | 8.21 µM | 5.46 µM | > 100 µM | > 100 µM | > 100 µM | 1.59 µM | > 100 µM | > 28.5 µM | > 100 µM | 6.15 µM | > 100 µM | 2.96 µM | > 100 µM | 6.27 µM | > 100 µM
COc1cc(/C=C(/C)[N+](=O)[O-])ccc1O | 2.34 µM and 3.08 µM | 4.67 µM and 8.82 µM | 2.17 µM and 1.38 µM | 6.07 µM and 3.26 µM | 1.99 µM and 1.45 µM | 3.99 µM and 2.85 µM | 2.46 µM | 6.01 µM | 1.62 µM and 1.84 µM | 4.4 µM and 4.28 µM | 1.83 µM and 1.85 µM | 3.79 µM and 3.6 µM | 2.58 µM and 4.07 µM | 6.96 µM and 14.2 µM | 2.05 µM and 2.09 µM | 5.23 µM | 8.15 µM and 4.78 µM | 20.4 µM and 16.9 µM | 1.53 µM and 1.41 µM | 3.19 µM and 3.39 µM
N#CC1=C(N)Oc2cc3c(cc2C1c1cccs1)OCO3 (stereo not drawn) | 0.882 µM | 37.6 µM | 0.542 µM | > 100 µM | 0.366 µM | 1.66 µM | 0.484 µM | > 100 µM | 0.66 µM | 26.2 µM | 0.387 µM | > 100 µM | 0.653 µM | > 100 µM | 0.428 µM | > 100 µM | 0.575 µM | 8.1 µM | 1.24 µM | > 100 µM
Cc1ccc(Nc2nc(NCCO)c3ccccc3n2)cc1C | 11.5 µM | 23.6 µM | 4.66 µM | 17.8 µM | 1.81 µM | 3.73 µM | 10.7 µM | 24.1 µM | 1.97 µM | 8.03 µM |  |  | 10.8 µM | 22.7 µM | 9.74 µM | 22.5 µM | 14.2 µM | 27.6 µM | 5.01 µM | 19 µM
Oc1ccc2ccccc2c1C=NCCCN=Cc1c(O)ccc2ccccc12 | 18.5 µM | 47.8 µM | 15.7 µM | 49.5 µM | 15.9 µM | 31.1 µM | 22.6 µM | 47.4 µM | 8.93 µM | 59.9 µM | 7.94 µM | 23.1 µM | 0.829 µM | 12.9 µM | 3.13 µM | 13 µM | 24.8 µM | 67.5 µM | 8.4 µM | 52.4 µM
CCn1c(=O)c(-c2ccn[nH]2)cc2c(C)nc(N)nc21 | 0.225 µM | 4.29 µM |  |  | 1.78 µM | 10.4 µM | 0.575 µM | 5.91 µM | 0.213 µM | 1.56 µM | 1.23 µM | 30.6 µM | 2.41 µM | > 100 µM | 2.07 µM | > 100 µM | 0.698 µM | 3.4 µM | 0.291 µM | 3.72 µM
CCCCCCCCCCCCN1C(C)=CS/C1=C\C=C\c1scc(C)[n+]1CCCCCCCCCCCC | 1.54 µM | 7.17 µM | 1.74 µM | 12.8 µM | 1.26 µM | 4.13 µM | 3.51 µM | 28.7 µM | 0.864 µM | 3.77 µM | 1.34 µM | 4.61 µM | 2.34 µM | > 100 µM | 0.999 µM | 4.99 µM | 2.74 µM | 22.9 µM | 2.4 µM | 12.4 µM
Cc1ccc(C)c(NC(=O)C(=O)C(c2cnc3ccc([N+](=O)[O-])cc3n2)[N+](=O)[O-])c1 (stereo not drawn) |  | > 100 µM |  |  |  | > 100 µM |  | > 100 µM |  | > 100 µM |  | > 100 µM |  | > 100 µM |  | > 100 µM |  | > 100 µM |  | > 100 µM
Oc1ccc(C(c2ccccc2)(c2ccccc2)c2ccccc2)cc1 | 17.1 µM | 31.3 µM | 14 µM | 29.6 µM | 15.5 µM | 29.8 µM | 17.6 µM | 31.5 µM | 17.8 µM | 34.1 µM | 15.6 µM | 30.3 µM | 19.4 µM | 37.6 µM | 14 µM | 28.9 µM | 16.3 µM | 30 µM | 11.8 µM | 26.9 µM
CC(C)C[C@H](NC(=O)[C@H](Cc1ccccc1)n1ccc(N2CCCCC2)cc1=O)B(O)O | 0.364 µM | 4.32 µM | 0.467 µM | 10 µM | 0.853 µM | > 100 µM | 2.63 µM | 9.29 µM | 1.34 µM | 5.61 µM | 0.356 µM | 3.88 µM | 0.188 µM | 0.423 µM | 1.59 µM | > 100 µM | 2.36 µM | 71.5 µM | 0.981 µM | 15.4 µM
CN(C)CCCCN1CCc2c(n(C)c3ccccc23)C1=O |  | > 61.5 µM and 95.3 µM |  | > 73.4 µM and 65.3 µM |  | 61.7 µM and 33 µM |  | > 80.8 µM and 63.7 µM |  | 81.2 µM and > 90.7 µM |  | 36.8 µM and 34 µM |  | > 80.5 µM |  | > 100 µM |  | > 95 µM |  | > 76.3 µM and 46.7 µM
Cn1ccnc1C(=O)/C=C/c1ccc(CC(=O)Nc2ccc(Cl)cc2)cc1 | 3.53 µM | > 25 µM | 13.5 µM | > 25 µM | 9.44 µM | > 25 µM | 2.16 µM | > 25 µM | > 25 µM | > 25 µM |  |  | 7.43 µM | > 25 µM | 2.04 µM | > 25 µM | 8.79 µM | > 25 µM | 2.27 µM | > 25 µM
Nc1ccccc1C#CC#Cc1ccccc1N | 20.5 µM | 49 µM | 1.36 µM | 18.7 µM | 22.5 µM | 75.7 µM | 15.9 µM | 29.9 µM | 1.37 µM | 96.7 µM | 7.34 µM | 65.8 µM |  |  | 4.04 µM | 22 µM | 58 µM | > 100 µM | 8 µM | > 100 µM

From PubChem BioAssay (NCI)
